Test results published in US10815276B2, “Cell penetrating peptides and methods of making and using thereof” (Entrada Therapeutics, Inc., priority 2014, dated 2020).
pIC50, pKd: −log10 of the molar value. Starred links: 1 amine or outer side, 2 acyl side, 3 side chain; linkers in the order of their positions; H or OH if unused. Positions of bridges follow the written chain, without caps; N, C: chain ends. Non-standard residues stand in square brackets, D forms with d. Residues, ends and D or L forms follow the SMILES beside them. No end group written: not given here. Trimesoyl = O=C(c1cc(C(=O)[*:2])cc(C(=O)[*:3])c1)[*:1]; Phe(4-F) = N[C@@H](Cc1ccc(F)cc1)C(=O)O; dPhe(4-F) = N[C@H](Cc1ccc(F)cc1)C(=O)O; 2Nal = N[C@@H](Cc1ccc2ccccc2c1)C(=O)O; Pip = O=C(O)[C@@H]1CCCCN1; Dap = NC[C@H](N)C(=O)O

Tests used:
[1] = target: bovine serum albumin (BSA) (Bos taurus, UniProt P02769); experiment: biochemical; format: binding
Procedure: (§1) The selectivity of peptide 37 was assessed by two different tests. First, peptide 37 was tested for binding to a panel of arbitrarily selected proteins including bovine serum albumin (BSA), protein tyrosine phosphatases 1B, SHP1, and SHP2, the Grb2 SH2 domain, Ras, and tumor necrosis factor-a. […] Peptide 37 was next tested for potential inhibition of Pin4, FKBP12, and cyclophilin A, the three other common human peptidyl-prolyl cis-trans isomerases. […] Peptide 37 had no effect on the catalytic activity of FKBP12 or cyclophilin A up to 5 μM concentration.

SHP2 = SHP2 (Homo sapiens, UniProt Q06124); experiment: Selectivity panel binding
Procedure: as §1

[2] = target: protein tyrosine phosphatases 1B (Homo sapiens, UniProt P18031); experiment: Selectivity panel binding
Procedure: as §1

Grb2 SH2 domain = target: T1, Grb2 SH2 domain (Homo sapiens, UniProt P62993); experiment: Selectivity panel binding
T1 construct: the Grb2 SH2 domain
Procedure: as §1

SHP1 = SHP1 (Homo sapiens, UniProt P29350); experiment: Selectivity panel binding
Procedure: as §1

tumor necrosis factor-a = tumor necrosis factor-a (Homo sapiens, UniProt P01375); experiment: Selectivity panel binding
Procedure: as §1

Ras = experiment: Selectivity panel binding
Procedure: as §1

HeLa cells [3] = experiment: Western blot of PML protein level; format: cell-based, human
Procedure: FIGS. 38A, 38B, 38C, and 38D display cellular activity of peptide 37. (FIG. 38A) Cellular uptake of peptides 1, 37, and 46 (5 μM) by HeLa cells as analyzed by flow cytometry. MFI, mean fluorescence intensity; none, untreated cells (no peptide). (FIG. 38B) Anti-proliferative effect of peptides 37, 46, and 47 on HeLa cells as measured by MTT assay. (FIG. 38C) Western blots showing the effect of peptides 1, 37 and 47 on the protein level of PML in HeLa cells. β-Actin was used as loading control. (FIG. 38D) Quantification of western blot results from (FIG. 38C). Data reported were after background subtraction and represent the mean±SD from 3 independent experiments.
Finally, to ascertain that Pin1 is the molecular target of peptide 37 in vivo, the intracellular protein level of a well-established Pin1 substrate, […] (PML), was examined by western blot analysis. Pin1 negatively regulates the PML level in a phosphorylation-dependent manner and inhibition of Pin1 activity is expected to stabilize PML and increase its intracellular level. […] The effect was already significant at 0.2 μM inhibitor (1.8-fold increase in the PML level) and plateaued at ˜1 μM (3.3-fold increase). Again, bicyclic peptide 47 had no effect under the same conditions, while peptide 1 (the positive control, at 5 μM) increased the PML level by 3.1-fold.

Pin1 [4] = target: T2, Pin1 (Homo sapiens, UniProt Q13526, S16A/Y23A); experiment: cis-trans isomerase activity, Suc-Ala-Glu-Pro-Phe-pNA; format: biochemical; conditions: substrate Suc-Ala-Glu-Pro-Phe-pNA; read-out: IC50 for Pin1 catalytic activity
T2 construct: The full-length human S16A/Y23A mutant Pin1 was expressed and purified from E. coli; made in house
Procedure: (§2) (FIG. 37A) Binding to FITC-labeled peptide 37 to Pin1 as analyzed by fluorescent anisotropy (FA). (FIG. 37B) Competition between peptide 37 and FITC-labeled peptide 1 (100 nM) for binding to Pin1 (400 nM) as monitored by FA. (FIG. 37C) Effect of peptide 37 on the cis-trans isomerase activity of Pin1, Pin4, FKBP12, and cyclophilin A using Suc-Ala-Glu-Pro-Phe-pNA as substrate. (FIG. 37D) Comparison of the serum stability of peptides 1 and 37.
(§3) To determine whether peptide 37 binds to the catalytic site of Pin1, its ability to compete with peptide 1 for binding to Pin1 by FA analysis was examined. […] Next, the catalytic activity of Pin1 toward a peptide substrate, Suc-Ala-Glu-Pro-Phe-pNA, in the presence of increasing concentrations of peptide 37 was monitored.

HeLa cells [5] = test system: HeLa cells
Excerpt: The effect of peptide 37 on the growth of HeLa cells was examined by using the MTT cell viability assay.

Pin1 [6] = target: T2, Pin1; experiment: Pin1 binding by FA (FITC-labeled peptides); conditions: FITC-labeled peptide, FA; read-out: KD
Pin1 [7] = target: T2, Pin1; experiment: FA competition with FITC-labeled peptide 1; conditions: 100 nM FITC-labeled peptide 1, 400 nM Pin1; read-out: IC50 for inhibiting binding of peptide 1 to Pin1
Procedure: as §2, §3

HeLa cells [8] = experiment: Cellular uptake by flow cytometry; format: cell-based, human
Procedure: The cellular uptake efficiency of peptide 37, peptide 1, and a previously reported membrane-impermeable monocyclic Pin1 inhibitor (Table 18, peptide 46) was assessed by incubating HeLa cells with the FITC-labeled peptides (5 μM) for 2 h and quantifying the total intracellular fluorescence by flow cytometry analysis. […] By contrast, cells treated with peptides 1 and 37 gave MFI values of 2562 and 8792, respectively. Thus, peptide 37 is internalized by HeLa cells ˜4-fold more efficiently than peptide 1. Presumably, the negative charged phosphate group of peptide 1 interacted electrostatically with the positively charged CPP motif and reduced the cellular uptake efficiency of the latter.

Pin4 = Pin4 (Homo sapiens, UniProt Q9Y237); experiment: cis-trans isomerase activity; format: biochemical
Procedure: as §2, §1

FKBP12 = FKBP12 (Homo sapiens, UniProt P62942); experiment: cis-trans isomerase activity; format: biochemical; conditions: up to 5 μM
Procedure: as §2, §1

cyclophilin A = cyclophilin A (Homo sapiens, UniProt P62937); experiment: cis-trans isomerase activity; format: biochemical; conditions: up to 5 μM
Procedure: as §2, §1

[9] = target: T3, recombinant caspase-3 enzyme (Homo sapiens, UniProt P42574); experiment: In vitro fluorimetric caspase assay; format: biochemical; conditions: 10 μM substrate, 10 mM DTT
T3 construct: purchased EMD Chemicals (San Diego, Calif.)
T3 sequence (P42574 29-175 limits assumed): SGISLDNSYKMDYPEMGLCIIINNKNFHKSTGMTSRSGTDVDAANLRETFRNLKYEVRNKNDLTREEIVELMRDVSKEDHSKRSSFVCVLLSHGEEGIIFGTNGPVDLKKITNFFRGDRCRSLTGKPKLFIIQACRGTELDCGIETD
T3 sequence (P42574 176-277 limits assumed): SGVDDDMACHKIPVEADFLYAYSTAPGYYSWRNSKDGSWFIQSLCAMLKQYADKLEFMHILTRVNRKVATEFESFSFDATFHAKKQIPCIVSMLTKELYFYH
Excerpt: Reagents for peptide synthesis were purchased from Advanced ChemTech (Louisville, Ky.), NovaBiochem (La Jolla, Calif.), or Anaspec (San Jose, Calif.). Rink resin LS (100-200 mesh, 0.2 mmol/g) was purchased from Advanced ChemTech. Dextrane^Rho, trypsin and α-chymotrypsin were purchased from Sigma-Aldrich (St. Louis, Mo.). Cell culture media, fetal bovine serum, penicillin-streptomycin, 0.25% trypsin-EDTA, and DPBS were purchased from Invitrogen (Carlsbad, Calif.). Nuclear staining dye DRAQ5 was purchased from Thermo Scientific (Rockford, Ill.). Caspase-3, Human, recombinant protein was purchased from EMD Chemicals (San Diego, Calif.).
0.5 μL (100 U/μL) caspase-3 enzyme was first incubated with 90 μL of reaction buffer (50 mM HEPES, pH 7.4, 100 mM NaCl, 10 mM DTT) for 30 min in 96-well plate. Fluorogenic substrates (10 μL, 100 μM) were mixed into the above solutions to start the reactions, and the plate was measured on a Spectramax M5 plate reader (Ex=360 nm, Em=440 nm) (Molecular Devices). Fluorescence units (FU) increase at one-minute intervals was correlated to the release of Amc due to protease activity. The ΔFU/min was calculated from the linear portion of the reaction curve. Reported values are averages of three trials with the standard deviation indicated.

T2 sequence (Q13526 whole entry S16A/Y23A): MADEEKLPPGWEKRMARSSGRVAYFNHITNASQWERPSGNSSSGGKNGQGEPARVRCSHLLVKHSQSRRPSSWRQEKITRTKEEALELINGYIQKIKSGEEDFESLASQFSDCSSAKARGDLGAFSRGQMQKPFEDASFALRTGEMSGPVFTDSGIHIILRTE
Pin4, sequence (Q9Y237 whole entry): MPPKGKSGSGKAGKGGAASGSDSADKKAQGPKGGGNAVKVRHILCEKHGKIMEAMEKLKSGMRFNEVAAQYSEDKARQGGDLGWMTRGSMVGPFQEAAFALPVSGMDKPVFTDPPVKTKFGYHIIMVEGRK
T1 sequence (P62993 60-152 limits assumed): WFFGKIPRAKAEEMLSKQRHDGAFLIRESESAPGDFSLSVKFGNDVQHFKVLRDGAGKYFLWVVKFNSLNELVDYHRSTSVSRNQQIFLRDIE
protein tyrosine phosphatases 1B, sequence (P18031 whole entry): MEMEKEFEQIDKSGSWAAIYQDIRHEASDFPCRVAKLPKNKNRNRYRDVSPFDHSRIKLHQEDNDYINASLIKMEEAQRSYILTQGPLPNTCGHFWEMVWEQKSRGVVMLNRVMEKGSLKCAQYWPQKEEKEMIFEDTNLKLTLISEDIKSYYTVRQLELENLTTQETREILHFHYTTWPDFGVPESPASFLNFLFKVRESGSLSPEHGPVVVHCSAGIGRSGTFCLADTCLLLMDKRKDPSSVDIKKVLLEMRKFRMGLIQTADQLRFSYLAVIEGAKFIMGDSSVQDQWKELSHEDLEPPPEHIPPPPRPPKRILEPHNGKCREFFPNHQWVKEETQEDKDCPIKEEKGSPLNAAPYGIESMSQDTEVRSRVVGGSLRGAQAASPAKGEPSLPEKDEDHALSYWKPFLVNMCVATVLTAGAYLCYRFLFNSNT
bovine serum albumin (BSA), sequence (P02769 25-607): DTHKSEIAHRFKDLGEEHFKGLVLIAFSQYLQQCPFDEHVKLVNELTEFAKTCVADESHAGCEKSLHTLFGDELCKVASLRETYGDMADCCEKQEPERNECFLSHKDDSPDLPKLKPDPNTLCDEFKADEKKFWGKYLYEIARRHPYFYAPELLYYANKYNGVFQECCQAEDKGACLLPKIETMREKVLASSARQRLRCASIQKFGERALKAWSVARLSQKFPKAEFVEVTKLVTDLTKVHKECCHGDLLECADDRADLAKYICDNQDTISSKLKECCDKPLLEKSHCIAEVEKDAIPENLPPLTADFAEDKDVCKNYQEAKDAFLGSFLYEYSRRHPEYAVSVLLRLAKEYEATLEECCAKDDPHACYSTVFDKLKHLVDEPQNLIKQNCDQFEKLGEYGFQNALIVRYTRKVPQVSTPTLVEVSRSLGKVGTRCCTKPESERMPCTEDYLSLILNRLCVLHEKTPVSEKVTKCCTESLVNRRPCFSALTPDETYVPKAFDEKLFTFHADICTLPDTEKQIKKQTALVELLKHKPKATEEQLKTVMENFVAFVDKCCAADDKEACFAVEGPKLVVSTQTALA
FKBP12, sequence (P62942 whole entry): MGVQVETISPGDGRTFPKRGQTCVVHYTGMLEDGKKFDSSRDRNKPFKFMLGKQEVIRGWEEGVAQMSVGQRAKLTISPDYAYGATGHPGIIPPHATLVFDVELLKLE
cyclophilin A, sequence (P62937 whole entry): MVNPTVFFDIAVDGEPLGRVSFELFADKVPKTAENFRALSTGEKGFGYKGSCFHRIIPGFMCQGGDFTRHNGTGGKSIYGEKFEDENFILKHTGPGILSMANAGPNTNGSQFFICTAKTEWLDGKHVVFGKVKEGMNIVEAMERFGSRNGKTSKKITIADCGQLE
tumor necrosis factor-a, sequence (P01375 77-233 limits assumed): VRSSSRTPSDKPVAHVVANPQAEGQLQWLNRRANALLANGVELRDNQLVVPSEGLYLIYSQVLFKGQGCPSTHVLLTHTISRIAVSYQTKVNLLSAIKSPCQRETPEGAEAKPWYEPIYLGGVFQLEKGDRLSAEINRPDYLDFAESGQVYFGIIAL
SHP2, sequence (Q06124 whole entry, species assumed): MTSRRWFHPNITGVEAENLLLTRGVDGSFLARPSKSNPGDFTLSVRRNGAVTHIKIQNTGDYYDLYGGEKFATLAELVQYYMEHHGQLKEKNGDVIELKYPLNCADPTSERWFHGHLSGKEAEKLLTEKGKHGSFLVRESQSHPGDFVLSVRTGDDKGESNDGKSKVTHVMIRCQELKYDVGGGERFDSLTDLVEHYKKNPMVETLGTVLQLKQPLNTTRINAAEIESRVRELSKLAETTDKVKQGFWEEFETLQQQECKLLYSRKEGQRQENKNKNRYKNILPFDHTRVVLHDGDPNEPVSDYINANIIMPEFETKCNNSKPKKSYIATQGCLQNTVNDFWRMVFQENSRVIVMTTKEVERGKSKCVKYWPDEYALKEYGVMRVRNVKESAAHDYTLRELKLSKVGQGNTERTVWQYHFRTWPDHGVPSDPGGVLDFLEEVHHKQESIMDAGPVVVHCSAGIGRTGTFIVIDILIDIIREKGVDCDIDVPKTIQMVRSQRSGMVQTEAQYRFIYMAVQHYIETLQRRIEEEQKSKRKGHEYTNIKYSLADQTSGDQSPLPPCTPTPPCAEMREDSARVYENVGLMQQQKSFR
SHP1, sequence (P29350 whole entry): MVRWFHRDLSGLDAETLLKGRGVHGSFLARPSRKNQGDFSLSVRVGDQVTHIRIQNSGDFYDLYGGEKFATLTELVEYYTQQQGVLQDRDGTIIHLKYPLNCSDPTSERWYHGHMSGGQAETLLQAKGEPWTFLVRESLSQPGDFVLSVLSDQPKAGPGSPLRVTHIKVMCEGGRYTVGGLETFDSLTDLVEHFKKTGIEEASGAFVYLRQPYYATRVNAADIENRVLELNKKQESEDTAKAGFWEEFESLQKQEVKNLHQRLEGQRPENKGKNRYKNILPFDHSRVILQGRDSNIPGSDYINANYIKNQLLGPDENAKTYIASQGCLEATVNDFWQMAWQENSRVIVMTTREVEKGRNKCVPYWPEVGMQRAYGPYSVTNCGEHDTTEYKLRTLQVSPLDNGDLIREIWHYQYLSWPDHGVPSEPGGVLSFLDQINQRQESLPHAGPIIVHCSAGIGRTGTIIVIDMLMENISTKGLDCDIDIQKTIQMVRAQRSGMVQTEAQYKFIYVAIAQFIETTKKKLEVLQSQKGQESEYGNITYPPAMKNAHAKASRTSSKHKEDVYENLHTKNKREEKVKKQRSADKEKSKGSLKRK

C[C@@H]1NC(=O)[C@H](CCCNC(=N)N)NC(=O)[C@H](Cc2ccc3ccccc3c2)NC(=O)[C@@H]2CCCCN2C(=O)[C@@H]([C@H](C)O)NC(=O)[C@H](Cc2ccc(F)cc2)NC(=O)[C@@H](Cc2ccc(F)cc2)NC(=O)c2cc3cc(c2)C(=O)NC[C@H](NC(=O)[C@@H](Cc2ccccc2)NC1=O)C(=O)N[C@@H](Cc1ccccc1)C(=O)N[C@@H](Cc1ccc2ccccc2c1)C(=O)N[C@@H](CCCNC(=N)N)C(=O)N[C@@H](CCCNC(=N)N)C(=O)N[C@@H](CCCNC(=N)N)C(=O)N[C@@H](CCCNC(=N)N)C(=O)N[C@H](C(=O)N[C@@H](CCCCN)C(N)=O)CNC3=O [Peptide 37, bicyclo[Tm-(D-4-Fpa-Fpa-D-Thr-Pip-Nal-Arg-Ala-D-Phe)-Dap-(Phe-Nal-Arg-Arg-Arg-Arg-Dap)]-Lys] ([dPhe(4-F)][Phe(4-F)][dT][Pip][2Nal]RA[dF][Dap]F[2Nal]RRRR[Dap]K-NH2; linker N-9-16 via Trimesoyl; C-terminus assumed)
pKd [1]: ~4.70
Binding to SHP2 (SHP2): not any of the other six proteins
Binding to protein tyrosine phosphatase 1B [2]: not any of the other six proteins
Binding to Grb2 SH2 domain (Grb2 SH2 domain): not any of the other six proteins
Binding to SHP1 (SHP1): not any of the other six proteins
Binding to tumor necrosis factor-a (tumor necrosis factor-a): not any of the other six proteins
Binding to Ras (Ras): not any of the other six proteins
Increase in the PML level (HeLa cells [3]; 0.2 μM inhibitor): 1.8 fold
Effect on the PML level (HeLa cells [3]; 0.2-5 μM): concentration-dependent increases in the PML level
Increase in the PML level (plateau) (HeLa cells [3]; ~1 μM inhibitor): 3.3 fold
pIC50 (Pin1 [4]): 6.77
Growth inhibition (HeLa cells [5]; 3-day treatment with 5 μM): > 60%
pIC50 (HeLa cells [5]; read-out: IC50 of HeLa cell growth, MTT): 6.00
pKd (Pin1 [6]): 6.92
pIC50 (Pin1 [7]): 6.72
Internalization more efficient than peptide 1 (HeLa cells [8]): ~4 fold
Mean fluorescence intensity (MFI) (HeLa cells [8]; 5 μM FITC-labeled peptide, 2 h): 8792
inhibition at 5 µM (Pin4; 5 μM inhibitor): ~15%
pIC50 (Pin4; estimated): ~4.47
Effect on catalytic activity of FKBP12 (FKBP12): no effect
Effect on catalytic activity of cyclophilin A (cyclophilin A): no effect

A^c−RRRRRRRRRDΩUD^−A^mc (not fully specified (N-terminus, C-terminus); printed as Ac−RRRRRRRRRDΩUD−Amc) [Peptide 7 (Example 2)]
In vitro activity against recombinant caspase-3 enzyme, ΔFU/min [9]: 45.3 ± 6.5 ΔFU/min
